Laboratory results reported in PubChem BioAssay (NCI).
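Cultured in 96-well plates, cells were exposed to test compound for 48 hours across five concentrations. TGI: concentration producing complete growth inhibition.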

Columns and labels:
Assay in all cases: DTP human tumour cell line panel, 48 h
786-0 renal = test system: 786-0 renal
A498 renal = test system: A498 renal
A549 NSCLC = test system: A549 NSCLC
ACHN renal = test system: ACHN renal
BT-549 breast = test system: BT-549 breast
CAKI-1 renal = test system: CAKI-1 renal
CCRF-CEM leukemia = test system: CCRF-CEM leukemia
COLO 205 colon = test system: COLO 205 colon
DU-145 prostate = test system: DU-145 prostate
EKVX NSCLC = test system: EKVX NSCLC
HCC-2998 colon = test system: HCC-2998 colon
HCT-116 colon = test system: HCT-116 colon
HCT-15 colon = test system: HCT-15 colon
HL-60(TB) leukemia = test system: HL-60(TB) leukemia
HOP-62 NSCLC = test system: HOP-62 NSCLC
HOP-92 NSCLC = test system: HOP-92 NSCLC
HS 578T breast = test system: HS 578T breast
HT29 colon = test system: HT29 colon
IGROV1 ovarian = test system: IGROV1 ovarian
K-562 leukemia = test system: K-562 leukemia
KM12 colon = test system: KM12 colon
LOX IMVI melanoma = test system: LOX IMVI melanoma
M14 melanoma = test system: M14 melanoma
MALME-3M melanoma = test system: MALME-3M melanoma
MCF7 breast = test system: MCF7 breast
MDA-MB-231 breast = test system: MDA-MB-231 breast
MDA-MB-435 = test system: MDA-MB-435
MDA-N = test system: MDA-N
MOLT-4 leukemia = test system: MOLT-4 leukemia
NCI-H226 lung = test system: NCI-H226 lung
NCI-H23 lung = test system: NCI-H23 lung
NCI-H460 lung = test system: NCI-H460 lung
NCI-H522 lung = test system: NCI-H522 lung
NCI/ADR-RES ovarian = test system: NCI/ADR-RES ovarian
OVCAR-3 ovarian = test system: OVCAR-3 ovarian
OVCAR-4 ovarian = test system: OVCAR-4 ovarian
OVCAR-5 ovarian = test system: OVCAR-5 ovarian
OVCAR-8 ovarian = test system: OVCAR-8 ovarian
PC-3 prostate = test system: PC-3 prostate
RPMI-8226 leukemia = test system: RPMI-8226 leukemia
RXF 393 renal = test system: RXF 393 renal
SF-295 CNS = test system: SF-295 CNS
SF-539 CNS = test system: SF-539 CNS
SK-MEL-2 melanoma = test system: SK-MEL-2 melanoma
SK-MEL-28 melanoma = test system: SK-MEL-28 melanoma
SK-MEL-5 melanoma = test system: SK-MEL-5 melanoma
SK-OV-3 ovarian = test system: SK-OV-3 ovarian
SN12C renal = test system: SN12C renal
SNB-19 CNS = test system: SNB-19 CNS
SNB-75 CNS = test system: SNB-75 CNS
SR leukemia = test system: SR leukemia
SW-620 colon = test system: SW-620 colon
T-47D breast = test system: T-47D breast
TK-10 renal = test system: TK-10 renal
U251 CNS = test system: U251 CNS
UACC-62 melanoma = test system: UACC-62 melanoma
UO-31 renal = test system: UO-31 renal
SF-268 CNS = test system: SF-268 CNS
UACC-257 melanoma = test system: UACC-257 melanoma

COP(=O)(OC)/C(=C/c1c[nH]c2ccccc12)C(=O)O
TGI (786-0 renal): > 100 µM
TGI (A498 renal): > 100 µM
TGI (A549 NSCLC): > 100 µM
TGI (ACHN renal): > 100 µM
TGI (BT-549 breast): > 100 µM
TGI (CAKI-1 renal): > 100 µM
TGI (CCRF-CEM leukemia): > 100 µM
TGI (COLO 205 colon): > 100 µM
TGI (DU-145 prostate): > 100 µM
TGI (EKVX NSCLC): > 100 µM
TGI (HCC-2998 colon): > 100 µM
TGI (HCT-116 colon): > 100 µM
TGI (HCT-15 colon): > 100 µM
TGI (HL-60(TB) leukemia): > 100 µM
TGI (HOP-62 NSCLC): > 100 µM
TGI (HOP-92 NSCLC): > 100 µM
TGI (HS 578T breast): > 100 µM
TGI (HT29 colon): > 100 µM
TGI (IGROV1 ovarian): > 100 µM
TGI (K-562 leukemia): > 100 µM
TGI (KM12 colon): > 100 µM
TGI (LOX IMVI melanoma): > 100 µM
TGI (M14 melanoma): > 100 µM
TGI (MALME-3M melanoma): > 100 µM
TGI (MCF7 breast): > 100 µM
TGI (MDA-MB-231 breast): > 100 µM
TGI (MDA-MB-435): > 100 µM
TGI (MDA-N): > 100 µM
TGI (MOLT-4 leukemia): > 100 µM
TGI (NCI-H226 lung): > 100 µM
TGI (NCI-H23 lung): > 100 µM
TGI (NCI-H460 lung): > 100 µM
TGI (NCI-H522 lung): > 100 µM
TGI (NCI/ADR-RES ovarian): > 100 µM
TGI (OVCAR-3 ovarian): > 100 µM
TGI (OVCAR-4 ovarian): > 100 µM
TGI (OVCAR-5 ovarian): > 100 µM
TGI (OVCAR-8 ovarian): > 100 µM
TGI (PC-3 prostate): > 100 µM
TGI (RPMI-8226 leukemia): > 100 µM
TGI (RXF 393 renal): > 100 µM
TGI (SF-295 CNS): > 100 µM
TGI (SF-539 CNS): > 100 µM
TGI (SK-MEL-2 melanoma): > 100 µM
TGI (SK-MEL-28 melanoma): > 100 µM
TGI (SK-MEL-5 melanoma): > 100 µM
TGI (SK-OV-3 ovarian): > 100 µM
TGI (SN12C renal): > 100 µM
TGI (SNB-19 CNS): > 100 µM
TGI (SNB-75 CNS): > 100 µM
TGI (SR leukemia): > 100 µM
TGI (SW-620 colon): > 100 µM
TGI (T-47D breast): > 100 µM
TGI (TK-10 renal): > 100 µM
TGI (U251 CNS): > 100 µM
TGI (UACC-62 melanoma): > 100 µM
TGI (UO-31 renal): > 100 µM

Cc1cc(S(=O)(=O)n2ccnc2Oc2cccc(Cl)c2)c(SSc2cc(Cl)c(C)cc2S(=O)(=O)n2ccnc2Oc2cccc(Cl)c2)cc1Cl
TGI (786-0 renal): > 70 µM
TGI (A498 renal): 84.5 µM
TGI (A549 NSCLC): > 100 µM
TGI (ACHN renal): > 32 µM
TGI (BT-549 breast): 43 µM
TGI (CAKI-1 renal): > 43.5 µM
TGI (CCRF-CEM leukemia): 10.7 µM
TGI (DU-145 prostate): > 78.7 µM
TGI (EKVX NSCLC): > 100 µM
TGI (HCC-2998 colon): 53 µM
TGI (HCT-116 colon): > 60.7 µM
TGI (HCT-15 colon): > 100 µM
TGI (HL-60(TB) leukemia): 20.9 µM
TGI (HOP-62 NSCLC): 38.7 µM
TGI (HOP-92 NSCLC): > 100 µM
TGI (HS 578T breast): 21.2 µM
TGI (HT29 colon): 48.5 µM
TGI (IGROV1 ovarian): > 100 µM
TGI (K-562 leukemia): > 100 µM
TGI (KM12 colon): > 100 µM
TGI (LOX IMVI melanoma): > 100 µM
TGI (M14 melanoma): > 42 µM
TGI (MALME-3M melanoma): 41.1 µM
TGI (MCF7 breast): > 29.3 µM
TGI (MDA-MB-231 breast): > 51.3 µM
TGI (MDA-MB-435): 48.3 µM
TGI (MDA-N): > 58.3 µM
TGI (MOLT-4 leukemia): 35 µM
TGI (NCI-H226 lung): 30.7 µM
TGI (NCI-H23 lung): > 100 µM
TGI (NCI-H460 lung): > 71.1 µM
TGI (NCI/ADR-RES ovarian): 21.8 µM
TGI (OVCAR-3 ovarian): > 100 µM
TGI (OVCAR-4 ovarian): > 100 µM
TGI (OVCAR-5 ovarian): > 100 µM
TGI (OVCAR-8 ovarian): > 41.8 µM
TGI (PC-3 prostate): > 78.5 µM
TGI (RPMI-8226 leukemia): > 38.7 µM
TGI (RXF 393 renal): 24.2 µM
TGI (SF-268 CNS): > 100 µM
TGI (SF-295 CNS): > 46.9 µM
TGI (SF-539 CNS): 37 µM
TGI (SK-MEL-2 melanoma): 26.9 µM
TGI (SK-MEL-28 melanoma): > 100 µM
TGI (SK-MEL-5 melanoma): 23 µM
TGI (SK-OV-3 ovarian): > 92.5 µM
TGI (SN12C renal): > 100 µM
TGI (SNB-19 CNS): > 100 µM
TGI (SNB-75 CNS): > 91.1 µM
TGI (SR leukemia): > 100 µM
TGI (SW-620 colon): > 100 µM
TGI (T-47D breast): > 67.2 µM
TGI (TK-10 renal): > 100 µM
TGI (U251 CNS): 12.4 µM
TGI (UACC-257 melanoma): > 100 µM
TGI (UACC-62 melanoma): > 53.2 µM
TGI (UO-31 renal): > 100 µM
